In this assay the target is T1, Proteinase-activated receptor 4 (Homo sapiens, UniProt Q96RI0).
T1 sequence (Q96RI0 whole entry): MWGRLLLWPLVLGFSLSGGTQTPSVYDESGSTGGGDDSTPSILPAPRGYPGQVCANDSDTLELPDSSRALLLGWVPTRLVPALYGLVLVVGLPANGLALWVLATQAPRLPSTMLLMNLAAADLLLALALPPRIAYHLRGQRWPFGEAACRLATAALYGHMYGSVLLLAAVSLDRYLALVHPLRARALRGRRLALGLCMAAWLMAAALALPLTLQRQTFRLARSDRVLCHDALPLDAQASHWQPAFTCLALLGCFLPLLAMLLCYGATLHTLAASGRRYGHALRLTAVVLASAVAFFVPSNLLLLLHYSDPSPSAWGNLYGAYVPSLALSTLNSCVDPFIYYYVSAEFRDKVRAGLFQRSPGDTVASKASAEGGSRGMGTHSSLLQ
Put plainly: FLIPR Assay in PAR4-Expressing HEK293 Cells: FLIPR-based calcium mobilization assay in HEK293 cells was used to measure PAR4 antagonism agonism, and selectivity against PAR1. The activity of the PAR4 antagonists of the present invention were tested in PAR4 expressing cells by monitoring H-Ala-Phe(4-F)-[…]NH2-induced intracellular calcium mobilization. Counter screens for agonist activity and PAR1 antagonist activity were also performed. Briefly, PAR/PAR4-expressing HEK293 cells were grown in DMEM (Life Technology, Grand Island, N.Y.) containing 10% heat-inactivated FBS, 1% Penicillin-Streptomycin, 10 μg/mL blasticidin, and 100 μg/mL Zeocin at 37° C. with 5% CO2. Cells were plated overnight prior to the experiment in a black 384-well Purecoat Amine clear bottom plate (Becton Dickinson Biosciences, San Jose, Calif.) at 10,000 cells/well in 30 μL growth medium and incubated in a humidified chamber at 37° C. with 5% CO2 overnight. Prior to compound addition, the cell medium was replaced with 40 μL of 1× calcium and magnesium-containing Hank's Balanced Saline Solution (HBSS) (with 20 mM HEPES) and 1:1000 diluted fluorescent calcium indicator (Codex Biosolutions, Gaithersburg, Md.). […]. (Calcium flux is commonly read through the fluorescence of an indicator in the cells.)

For two compounds, IC50 results are on record in ChEMBL document CHEMBL5727860, “Bicyclic heteroaryl substituted compounds” (2020).

Consider `COc1cnc2c(-c3nc4cc(F)c(O[C@@H]5CC(F)(F)C[C@@H]5OC(=O)Nc5cnc(OCCO)nc5)cc4s3)cc(C)cc2c1` (relative stereo), for which the IC50 – broadly, the point on the concentration scale where inhibition reaches its midpoint – was 20 nM. With `COc1ccc(NC(=O)O[C@H]2CCNC[C@H]2Oc2cc3sc(-c4cc(C)cc5nc(OC)cnc45)nc3cc2F)cn1` (racemic), the concentration for half-maximal inhibition (IC50) turned out to be 980 nM.
